Usually IC50 stands for the concentration at which inhibition is half-maximal. A higher IC50 goes with lower potency.

For 57 compounds, IC50 results are on record in patent US9512111B2, “N-sulfonylated tetrahydroquinolines and related bicyclic compounds for inhibition of RORγ activity and the treatment of disease” (Lycera Corporation, priority 2010, dated 2016).

One test concerns the target T1, RORγ-LBD (Homo sapiens, UniProt P51449).
T1 construct: HIS-tagged RORγ-LBD was recombinantly expressed in SF9 cells; made in house; host or cells: SF9 cells (baculovirus); unpurified lysate
T1 sequence (P51449 269-508 limits assumed): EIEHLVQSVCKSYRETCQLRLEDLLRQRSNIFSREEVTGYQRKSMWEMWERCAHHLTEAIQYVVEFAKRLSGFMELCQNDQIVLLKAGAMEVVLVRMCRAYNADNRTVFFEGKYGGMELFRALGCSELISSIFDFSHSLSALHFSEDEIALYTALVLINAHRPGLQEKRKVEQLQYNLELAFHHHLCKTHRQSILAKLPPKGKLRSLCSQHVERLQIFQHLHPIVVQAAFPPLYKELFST
Briefly: RORγ-Ligand Binding Domain TR-FRET Assay. Type of test: biochemical. As to conditions: Table 8, indazoles. The protocol:
HIS-tagged RORγ-LBD was recombinantly expressed in SF9 cells using a baculovirus expression system. The protein was not purified. Cells were lysed and the lysate was used as a source for RORγ-LBD for the assay. A 1:80 dilution of RORγ-LBD lysate in assay buffer (25 mM HEPES pH 7.0, 100 mM NaCl, 0.01% Tween, 0.1% BSA) was prepared and 5 μL was added to each well (RORγ-LBD final concentration ˜10 nM). Control wells received lysate from SF9 cells not expressing RORγ-LBD.
Compounds to be tested were diluted to 100× final test concentration in DMSO and further diluted to 4× final test concentration using assay buffer to provide the test compound mixture. An aliquot (5 μL) of the test compound mixture was added to each well.
A 4× stock of biotinylated-LXXLL peptide from SRC1-2 (Biotin-[…]) was prepared in assay buffer and a 5 μL aliquot added to each well (450 nM final concentration). A 4× solution of europium tagged anti-HIS antibody (2 nM final concentration) and APC conjugated streptavidin (60 nM final concentration) were prepared and a 5 μL aliquot added to each well.
The final assay mixture was incubated for 4 hours to overnight, and the fluorescence signal was measured on an Envision plate reader: (Excitation filter=340 nm; APC emission=665 nm; Europium emission=615 nm; dichroic mirror=D400/D630; delay time=100 μs, integration time=200 μs).
IC50 values for test compounds were calculated from the quotient of the fluorescence signal at 665 nm divided by the fluorescence signal at 615 nm using GraphPad Prism software.
A general note: TR-FRET usually uses a lanthanide donor and a delayed reading to cut background.
On to `COc1cccc(S(=O)(=O)n2ncc3ccc(NC(=O)c4c(F)cccc4C(F)(F)F)cc32)c1` [Compound V-49], for which the IC50 was below 15 µM.

The compound `O=C(Nc1ccc2cnn(S(=O)(=O)c3ccc(F)c(Cl)c3)c2c1)c1c(F)cccc1Cl` [Compound V-76] came in with an IC50 below 15 µM.

Compound `N#Cc1nn(S(=O)(=O)c2cccc(C(F)(F)F)c2)c2cc(NC(=O)c3c(F)cccc3Cl)ccc12` [Compound V-9] displayed an IC50 below 15 µM.

In turn, `Cc1cccc(S(=O)(=O)n2ncc3ccc(NC(=O)Cc4ccc(Cl)cc4)cc32)c1` [Compound V-31] displayed an IC50 below 15 µM.

In turn, `O=C(Nc1ccc2cnn(S(=O)(=O)c3ccc(I)cc3)c2c1)c1c(F)cccc1Cl` [Compound V-131] came in with a half-inhibitory concentration (IC50) below 15 µM.

Compound `Cc1ccccc1S(=O)(=O)n1ncc2ccc(NC(=O)c3c(F)cccc3Cl)cc21` [Compound V-129] had an IC50 below 15 µM.

As to `CC(=O)c1cccc(S(=O)(=O)n2ncc3ccc(NC(=O)c4c(F)cccc4Cl)cc32)c1` [Compound V-122], the IC50 is below 15 µM.

Turning to `COc1ccc(S(=O)(=O)n2ncc3ccc(NC(=O)c4c(F)cccc4Cl)cc32)cc1` [Compound V-157], the IC50 was below 15 µM.

`Cc1nn(C(F)F)cc1S(=O)(=O)n1ncc2ccc(NC(=O)c3c(Cl)cccc3Cl)cc21` [Compound V-65]: the IC50 was below 15 µM.

With `O=C(Nc1ccc2cnn(S(=O)(=O)c3cccc(Cl)c3)c2c1)c1c(F)cccc1F` [Compound V-61], the IC50 is below 15 µM.

In turn, `O=C(Nc1ccc2cnn(S(=O)(=O)c3cccc(Cl)c3F)c2c1)c1c(F)cccc1Cl` [Compound V-167] displayed an IC50 below 15 µM.

The compound `COc1cccc(S(=O)(=O)n2ncc3ccc(NC(=O)c4c(Cl)cccc4Cl)cc32)c1` [Compound V-73] yielded an IC50 below 15 µM.

The compound `CC(=O)Nc1ccc(S(=O)(=O)n2ncc3ccc(NC(=O)c4c(F)cccc4Cl)cc32)cc1Cl` [Compound V-149] showed an IC50 below 15 µM.

On to `O=C(Nc1ccc2cnn(S(=O)(=O)c3cc(F)cc(C(F)(F)F)c3)c2c1)c1c(F)cccc1Cl` [Compound V-161], for which the IC50 is below 15 µM.

Turning to `O=C(Nc1ccc2cnn(S(=O)(=O)c3ccc(F)cc3)c2c1)c1c(F)cccc1Cl` [Compound V-171], the IC50 is below 15 µM.

Take `Cc1c(S(=O)(=O)n2ncc3ccc(NC(=O)c4c(F)cccc4Cl)cc32)cnn1C` [Compound V-110]: the IC50 is below 15 µM.

With `COc1cccc(S(=O)(=O)n2ncc3ccc(NC(=O)c4c(F)cccc4F)cc32)c1` [Compound V-62], the IC50 was below 15 µM.

`Cc1cccc(Cl)c1C(=O)Nc1ccc2cnn(S(=O)(=O)c3cccc(C(F)(F)F)c3)c2c1` [Compound V-8] had an IC50 below 15 µM.

The compound `O=C(Nc1ccc2cnn(S(=O)(=O)c3ccc(N4CCOCC4)nc3)c2c1)c1c(F)cccc1Cl` [Compound V-95] showed an IC50 below 15 µM.

`COc1cccc(S(=O)(=O)n2ncc3ccc(NC(=O)c4c(Cl)cccc4C(F)(F)F)cc32)c1` [Compound V-40] came in with an IC50 below 15 µM.

Consider `COc1cccc(S(=O)(=O)n2ncc3ccc(NC(=O)c4c(F)cccc4Cl)cc32)c1` [Compound V-148], for which the half-maximal inhibitory concentration (IC50) was below 15 µM.

The compound `Cc1ncc(CC(=O)Nc2ccc3cnn(S(=O)(=O)c4cccc(C(C)(C)C)c4)c3c2)s1` [Compound V-2] gave an IC50 below 15 µM.

In turn, `CC(C)(C)c1cccc(S(=O)(=O)n2ncc3ccc(NC(=O)Cc4ccc(Cl)cc4)cc32)c1` [Compound V-28] gave an IC50 below 15 µM.

Regarding `CC(=O)c1cccc(S(=O)(=O)n2ncc3ccc(NC(=O)Cc4ccc(F)cc4)cc32)c1` [Compound V-24], the IC50 is below 15 µM.

As for `Cc1ccccc1CS(=O)(=O)n1ncc2ccc(NC(=O)c3c(F)cccc3Cl)cc21` [Compound V-119], the concentration for half-maximal inhibition (IC50) was below 15 µM.

For `Cc1ncc(CC(=O)Nc2ccc3cnn(S(=O)(=O)c4cccc(Cl)c4)c3c2)s1` [Compound V-6], the IC50 was below 15 µM.

As to `O=C(Nc1ccc2cnn(S(=O)(=O)Cc3cccc(Cl)c3)c2c1)c1c(F)cccc1Cl` [Compound V-86], the IC50 is below 15 µM.

In turn, `O=C(Nc1ccc2cnn(S(=O)(=O)c3ccc(C(F)(F)F)cc3)c2c1)c1c(F)cccc1Cl` [Compound V-88] returned an IC50 below 15 µM.

The compound `O=C(Nc1ccc2cnn(S(=O)(=O)C3CC3c3ccccc3)c2c1)c1c(F)cccc1Cl` (stereo not drawn) [Compound V-105] displayed an IC50 below 15 µM.

`O=C(Nc1ccc2cnn(S(=O)(=O)c3ccccc3Cl)c2c1)c1c(F)cccc1Cl` [Compound V-136] came in with an IC50 below 15 µM.

In turn, `O=C(Nc1ccc2cnn(S(=O)(=O)c3cccc(Cl)c3)c2c1)c1c(Cl)cccc1Cl` [Compound V-72] had an IC50 below 15 µM.

Take `O=C(Nc1ccc2cnn(S(=O)(=O)c3cc(Cl)cc(Cl)c3)c2c1)c1c(F)cccc1Cl` [Compound V-126]: the half-maximal inhibitory concentration (IC50) is below 15 µM.

In turn, `O=C(Nc1ccc2cnn(S(=O)(=O)c3ccc(F)c(C(F)(F)F)c3)c2c1)c1c(F)cccc1Cl` [Compound V-81] had an IC50 below 15 µM.

`CC(C)(C)c1cccc(S(=O)(=O)n2ncc3ccc(NC(=O)c4c(F)cccc4F)cc32)c1` [Compound V-57] displayed a half-inhibitory concentration (IC50) below 15 µM.

Consider `COc1ccc(F)cc1S(=O)(=O)n1ncc2ccc(NC(=O)c3c(F)cccc3Cl)cc21` [Compound V-100], for which the IC50 was below 15 µM.

For `O=C(Nc1ccc2cnn(S(=O)(=O)Cc3ccc(C(F)(F)F)cc3)c2c1)c1c(Cl)cccc1Cl` [Compound V-71], the IC50 was below 15 µM.

Compound `Cc1cccc(S(=O)(=O)n2ncc3ccc(NC(=O)c4c(F)cccc4C(F)(F)F)cc32)c1` [Compound V-46] registered an IC50 below 15 µM.

As to `O=C(Nc1ccc2cnn(S(=O)(=O)c3ccc(F)c(C(F)(F)F)c3)c2c1)c1c(F)cccc1C(F)(F)F` [Compound V-44], the IC50 was below 15 µM.

Take `COC(=O)c1ccc(S(=O)(=O)n2ncc3ccc(NC(=O)c4c(F)cccc4Cl)cc32)o1` [Compound V-151]: the IC50 is below 15 µM.

As for `O=C(Nc1ccc2cnn(S(=O)(=O)c3cc(F)cc(F)c3)c2c1)c1c(F)cccc1Cl` [Compound V-114], the IC50 was below 15 µM.

`CCn1cc(S(=O)(=O)n2ncc3ccc(NC(=O)c4c(F)cccc4Cl)cc32)cn1` [Compound V-113]: the IC50 was below 15 µM.

`O=C(Nc1ccc2cnn(S(=O)(=O)c3ccc(F)cc3Cl)c2c1)c1c(F)cccc1Cl` [Compound V-166] came in with a 50% inhibitory concentration (IC50) below 15 µM.

In turn, `O=C(Nc1ccc2cnn(S(=O)(=O)c3ccccc3OC(F)(F)F)c2c1)c1c(F)cccc1Cl` [Compound V-130] yielded an IC50 below 15 µM.

`Cc1cccc(S(=O)(=O)n2ncc3ccc(NC(=O)Cc4cnc(C)s4)cc32)c1` [Compound V-5] showed an IC50 below 15 µM.

Still in this test, the particulars now being: benzoxazines, Table 9.
`O=C(Cc1ccc(Cl)cc1)Nc1ccc2c(c1)N(S(=O)(=O)c1ccc(F)cc1)C[C@H](CO)O2` [VI-77] yielded an IC50 below 15 µM.

With `NCC1CN(S(=O)(=O)c2ccc(F)cc2)c2cc(NC(=O)c3c(F)cccc3Cl)ccc2O1` (stereo not drawn) [VI-31], the IC50 was below 15 µM.

For the compound `C[C@H]1CN(S(=O)(=O)c2ccc(F)cc2)c2cc(NC(=O)Cc3ccncc3)ccc2O1` [VI-130], the IC50 is below 15 µM.

As for `C[C@H](O)[C@H]1CN(S(=O)(=O)c2ccc(F)cc2)c2cc(NC(=O)c3c(F)cccc3Cl)ccc2O1` [VI-23], the IC50 was below 15 µM.

In the case of `COCC1CN(S(=O)(=O)c2ccc(F)c(F)c2)c2cc(NC(=O)Cc3ccc(Cl)cc3)ccc2O1` (stereo not drawn) [VI-69], the 50% inhibitory concentration (IC50) is above 15 µM.

Take `O=C(Nc1ccc2c(c1)N(S(=O)(=O)c1ccc(Cl)cc1)C[C@@H](CO)O2)c1c(F)cccc1Cl` [VI-54]: the 50% inhibitory concentration (IC50) is below 15 µM.

On to `C[C@H](O)[C@H]1CN(S(=O)(=O)c2ccc(F)cc2)c2cc(NC(=O)c3c(Cl)cccc3C(F)(F)F)ccc2O1` [VI-16], for which the IC50 is below 15 µM.

Compound `CCNCC1CN(S(=O)(=O)c2ccc(F)cc2)c2cc(NC(=O)c3c(F)cccc3Cl)ccc2O1` (stereo not drawn) [VI-34] had an IC50 below 15 µM.

The compound `O=C(Nc1ccc2c(c1)N(S(=O)(=O)c1ccc(F)cc1)CC(CC(F)(F)F)O2)c1c(F)cccc1Cl` (stereo not drawn) [VI-7] gave an IC50 below 15 µM.

Regarding `C[C@H]1CN(S(=O)(=O)c2ccc(F)cc2)c2cc(NC(=O)C(C)(C)c3ccc(Cl)cc3)ccc2O1` [VI-135], the IC50 was below 15 µM.

On to `CC(C(=O)Nc1ccc2c(c1)N(S(=O)(=O)c1ccc(F)cc1)C[C@H](C)O2)c1ccc(Cl)cc1` (stereo partly drawn) [VI-136], for which the IC50 is below 15 µM.

Compound `O=C(Nc1ccc2c(c1)N(S(=O)(=O)c1ccc(F)cc1)C(CO)CO2)c1c(F)cccc1Cl` (stereo not drawn) [Compound 23, 2-Chloro-6-fluoro-N-[4-(4-fluorobenzenesulfonyl)-3-hydroxymethyl-3,4-dihydro-2H-benzo[1,5]oxazin-6-yl]benzamide] registered an IC50 below 15 µM.

Compound `N#Cc1cccc(S(=O)(=O)N2C[C@H](CO)Oc3ccc(NC(=O)Cc4ccc(Cl)cc4)cc32)c1` [VI-61] showed an IC50 below 15 µM.
